Laboratory results taken from patent publication US20070292888A1, “Methods for Measuring Enzyme Activities in Cells, Blood, Tumors and Tissues” (GEN-PATH PHARMACEUTICALS, INC., priority 2004, published 2007).

Assays:
TK [1] = biological target: T1, TK (Homo sapiens, UniProt P29401); experiment: Cell-based TK inhibition in thiamine-depleted media, 96-well format; design: endogenous in cells; conditions: treated cells, 48 hours treatment
T1 sequence (P29401 1-623): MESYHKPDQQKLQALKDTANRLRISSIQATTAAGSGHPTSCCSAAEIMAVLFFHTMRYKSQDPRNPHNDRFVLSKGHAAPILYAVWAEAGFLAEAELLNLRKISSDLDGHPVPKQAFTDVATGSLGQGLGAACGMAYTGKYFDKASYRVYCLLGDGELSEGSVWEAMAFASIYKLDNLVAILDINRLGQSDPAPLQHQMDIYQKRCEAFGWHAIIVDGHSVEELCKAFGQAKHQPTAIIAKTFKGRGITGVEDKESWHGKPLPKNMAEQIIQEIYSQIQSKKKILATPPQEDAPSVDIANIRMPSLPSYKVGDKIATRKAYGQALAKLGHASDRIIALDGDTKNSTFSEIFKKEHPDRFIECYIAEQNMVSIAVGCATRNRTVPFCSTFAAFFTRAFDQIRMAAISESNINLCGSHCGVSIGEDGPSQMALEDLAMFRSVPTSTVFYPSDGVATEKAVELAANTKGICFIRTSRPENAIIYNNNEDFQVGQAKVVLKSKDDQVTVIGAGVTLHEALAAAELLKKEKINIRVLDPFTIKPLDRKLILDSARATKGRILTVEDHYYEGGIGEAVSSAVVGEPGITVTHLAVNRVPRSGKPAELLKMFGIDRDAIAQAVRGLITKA
Method: We determined the IC50 of compounds that inhibit the activity of the TPP utilizing enzymes TK, kGDH and PDH in a convenient 96-well format using an optimized version of the method described in the previous Examples.
The high thiamine levels in conventional cell culture media (e.g., DMEM (12 μM), RPMI (3 μM)) masks the inhibitory effect of such inhibitors. To measure the IC50 of such inhibitors, thus, a thiamine depleted DMEM, containing all the ingredients of normal DMEM except for thiamine (HyClone, custom order), was used. Thiamine-depleted media (TDM) is made up with thiamine-depleted DMEM, 10% FBS, which contains negligible amount of thiamine (estimated to be ˜3-5% nM) and 1% Penicillin-streptomycin.
Log-phase growing cells were trypsinized and resuspended in TDM. Optimization of the initial cell counts is recommended for each cell line to ensure that enzyme activity can be observed at the beginning and that healthy growth can continue. For cell lines that have a doubling time of approximately 24 hours and cellular transketolase levels high enough to be reliably detected with five thousand (5K) cells such as HCT116 and HT1080, 8K cells are recommended.
Media containing 8K cells (95 μl) were used to seed individual wells in a 96-well clear-bottom cell cultured treated sterile plate. […] Enzymatic inhibition was expressed as percent of control wells that were not treated with compounds. […]

TK [2] = biological target: T1, TK; experiment: Thiamine competition and washout time course of TK inhibition in cells; assay type: cell-based; design: endogenous in cells; host or cells: HCT116; conditions: HCT116 cells, TDM, thiamine 0-12 μM, 48 hours; 12 μM thiamine overcomes inhibition
Method: HCT116 cells were plated in clear-bottomed 96-well culture plates, at a density of 8000 cells/well in TDM. The following morning, N3PT and different amounts of thiamine (12 μM, 2.4 μM, 0.48 μM, 0.096 μM, 0.0192 μM, 0 μM) were added to the cells. Forty-eight hours later, plates were inverted to remove media and blotted on paper towels to remove residual media. Plates were immediately assayed for enzymatic TK activity. 80 μl of lysis buffer was added to each well, and the cells incubated at RT for 10 min to allow cell lysis. After lysis, 20 μl of the aforementioned 5× reaction mix was added to each well to initiate the reaction. Reactions were monitored as described above.
Cells were plated in TDM media 24 hours earlier, different concentration of N3PT and 100 nM thiamine were added to the cells and treated for 48 hour to allow N3PT to exert its inhibitory effect (day 2; d2). The media was then changed to contain only 100 nM thiamine and one plate was assayed every day for the next five days (d3 to d7).

Cc1ccc(C[n+]2csc(CCO)c2C)c(N)n1 [N3PT, 3-[(2-amino-6-methyl-3-pyridinyl)methyl]-5-(2-hydroxyethyl)-4-methyl thiazolium]
IC50 (TK [1]): 20 nM | Inhibition of TK in the presence of increased concentrations of thiamine (TK [2]): reduced by thiamine in a concentration dependent manner
